Reference: patent US20240115729A1, “COMPOSITIONS AND METHODS FOR TARGETED ANTIFIBROTIC THERAPY IN CHRONIC PANCREATITIS” (University of Virginia Patent Foundation, priority 2021, published 2024)
Where “and” joins values, the source holds several entries; their conditions need not be identical. Equal entries are not always repeated.

Columns and labels:
CK7 (epithelium) = assay: Immunofluorescence colocalization (MCC) of VT680-labeled phage with cell marker in CP pancreas; assay type: in vivo, mouse; conditions: CP pancreas sections
From the text: (§1) Immunofluorescence (IF). Post ex vivo imaging, mouse pancreata were submerged in Neg-50 Frozen Section Medium (Thermo Scientific, Waltham, Massachusetts, United States of America) and snap-frozen over liquid nitrogen vapor. The embedded tissues were cut into 5 μm sections using a cryostat (Leica Microsystems Inc., Buffalo Grove, Illinois, United States of America) for subsequent imaging with ZEISS LSM-880 Confocal Laser Scanning Microscope (Carl Zeiss Meditec, Inc., Jena, Germany) at the Advanced Microscopy Facility at the University of Virginia. Cell types of interest in the pancreatitis microenvironment were identified by immunohistochemistry using the following antibodies: rat anti-mouse CD31 at 1:200 dilution (endothelial markers; BD Biosciences, San Jose, California, United States of America), rat anti-mouse CD206 at 1:1000 dilution (M2 macrophage markers; Bio-Rad, Hercules, California, United States of America), rabbit anti-mouse cytokeratin 7 at 1:3000 dilution (CK-7, epithelial markers; Abcam, Cambridge, Massachusetts, United States of America), rabbit anti-mouse collagen IIIa at 1:200 dilution (ECM markers; Abcam, Cambridge, Massachusetts, United States of America), goat anti-mouse carboxypeptidase A1 at 1:200 dilution (CPA1, acini markers; R&D Systems, Inc., Minneapolis, Minnesota, United States of America), rat anti-mouse F4/80 at 1:500 (macrophage markers; Bio-Rad, Hercules, California, United States of America), and FITC-conjugated, mouse anti-mouse α-SMA at 1:200 dilution (MilliporeSigma, St. Louis, Missouri, United States of America). ALEXA FLUOR® 488 (Abcam, Cambridge, Massachusetts, United States of America) antibodies from appropriate species, including donkey anti-goat, donkey anti-rat, donkey anti-rabbit at 1:500 dilution, were used as secondary antibodies to locate the primary antibodies. IF-stained pancreatic sections were mounted with PROLONG™ Gold Antifade Mountant with DAPI (Thermo Fisher Scientific Inc, Waltham, Massachusetts, United States of America, United States of America) for nucleus visualization. IF images were taken on Ziess LSM 880 Confocal Microscope (ZIESS, Oberkochen, Germany) at the Advanced Microscopy Facility at the University of Virginia.
(§2) To identify the cell types that the CP targeting clones were binding, immunofluorescent analysis was performed on common cellular components in the CP microenvironment in the inflamed pancreas sections following in vivo validation of individual clones (FIG. 7). Mander's correlation coefficient (MCC) analysis was performed to determine colocalization of the targeting phage to the cell markers.

[1] = tested on: F4/80+ cells (macrophages); assay: as above; assay type: in vivo, mouse; conditions: CP pancreas sections
From the text: as §1, §2

[2] = tested on: CPA-1+ cells (acinar cells); assay: as above; assay type: in vivo, mouse; conditions: CP pancreas sections
From the text: as §1, §2

[3] = tested on: αSMA+ cells (activated PSC); assay: as above; assay type: in vivo, mouse; conditions: CP pancreas sections
From the text: as §1, §2

CD31 (endothelium) = assay: as above; assay type: in vivo, mouse; conditions: CP pancreas sections
From the text: as §1, §2

[4] = tested on: collagen IIIa+ cells (ECM); assay: as above; assay type: in vivo, mouse; conditions: Col IIIa; CP pancreas sections
From the text: as §1, §2

[5] = tested on: caerulein-induced CP mice (inflamed pancreas) versus healthy mice; assay: In vivo validation of individual phage clones: ex vivo IVIS fluorescence of organs after co-injection of targeting phage (VT680) and wild type M13Ke phage (VT750); design: species or system mouse (C57BL/6J); conditions: for CP-to-Healthy Ratio (fold change of specificity ratio): Pancreas; for specificity for CP over healthy pancreas: individual clones from Groups 2 and 3
Method: C57BL/6 J mice (6-12 week-old, female) were used for the in vivo phage screening. For chronic pancreatitis, caerulein (Bachem, Torrance, California, United States of America) was dissolved in sterile saline and administrated to mice twice a day, 8 hours apart for 14 consecutive days, at a concentration of 250 μg/kg body weight via intraperitoneal injection (Halbrook et al., 2017), as shown in FIG. 1A. During the 14-day course, intraperitoneal injections of 100 μg/kg buprenorphine were given every 3 days to minimize the induced pain. For healthy controls, c57BL/6 J mice were injected intraperitoneally with an equal volume of sterile saline following the same schedule as in the chronic pancreatitis models. […] Picrosirius red (Polysciences, Inc., Warrington, Pennsylvania, United States of America) was used to visualize collagen in paraffin-embedded pancreas sections (FIG. 1B).
Specificity of phage clones. After PHASTpep analysis and candidate clone selections, 18 candidate clones were grouped (4-5 clones per group, 4 groups total) based on sequence similarity using GibbsCluster Server 2.0 (Andreatta et al., 2017). by the Technical University of Denmark (FIG. 2). […] For each group, the fluorescently labeled candidate and WT phage were mixed and co-injected in CP and healthy mice (n=5) Phage accumulation was determined by measuring the ex vivo fluorescent intensity of the pancreas at 20 hours post-injection using the Fluorescent Molecular Tomography (FMT, PerkinElmer, Waltham, Massachusetts, United States of America) using the excitation and emission wavelength at 675 nm/720 nm for VT680 and 745 nm/800 nm for VT750. To account for variations of fluorescent labeling efficiency, the raw readouts of VT680 and VT750 were normalized to the dye-per-phage ratio (see Table 3 below).
The specificity ratio was calculated as % ID/g of the normalized VT680 divided by the % ID/g of the normalized VT750 (see Equation (1)). Quantifications are included in Table 4.
A similar procedure was applied to determine the specificity of individual phage clones in Groups 2 and 3. Candidate clones were labeled with VivioTag 680 (VT680, PerkinElmer, Waltham, MA) to match the detectable wavelength of the IVIS Spectrum Series (Perkin Elmer, Waltham, Massachusetts, United States of America). Fluorescent intensity was measured at 20 hours post-injection of candidate phage (VT680) and WT phage (VT750). Fold change of specificity ratio was calculated as the specificity ratio of CP mice divided by the specificity ratio of the healthy mouse (see Table 5).

[6] = tested on: cellular components in the CP microenvironment; assay: Cellular selectivity of phage clones: one-way ANOVA and Tukey-Kramer comparison of MCC of all cell markers; assay type: in vivo, mouse; conditions: for Cell type the phage clone shows specificity to / Marker the phage clone shows specificity to: CP microenvironment; for Colocalized Markers (p < 0.05) / Corresponding Cellular Components: statistically significant selectivity for a single cellular component in CP
From the text: as §1
Statistical analysis. Statistical analysis of the data was performed by student t-test, one-way analysis of variance (ANOVA), and Tukey-Kramer test. All data presented are expressed as mean+standard error of at least three independent measurements. For all comparisons, p-values<0.05 were considered significant.
as §2

HPYSPLR [7-mer peptide, candidate phage clone from Groups 2 and 3]
Mean Manders' Correlation Coefficient (MCC), fraction of phage overlapping cell marker (CK7 (epithelium)): 0.08
Mean Manders' Correlation Coefficient (MCC), fraction of phage overlapping cell marker [1]: 0.41
Mean Manders' Correlation Coefficient (MCC), fraction of phage overlapping cell marker [2]: 0.25
Mean Manders' Correlation Coefficient (MCC), fraction of phage overlapping cell marker [3]: 0.13
Mean Manders' Correlation Coefficient (MCC), fraction of phage overlapping cell marker (CD31 (endothelium)): 0.35
Mean Manders' Correlation Coefficient (MCC), fraction of phage overlapping cell marker [4]: 0.27
Radiant efficiency Targeting:M13Ke ([5]; CP mouse, liver): 0.59
Radiant efficiency Targeting:M13Ke ([5]; CP mouse, pancreas): 6.42
Radiant efficiency Targeting:M13Ke ([5]; CP mouse, spleen): 3.10
CP-to-Healthy Ratio ([5]; Liver): 0.744
CP-to-Healthy Ratio (fold change of specificity ratio) [5]: 1.544
CP-to-Healthy Ratio ([5]; Spleen): 1.138
Radiant efficiency Targeting:M13Ke ([5]; healthy mouse, liver): 0.80
Radiant efficiency Targeting:M13Ke ([5]; healthy mouse, pancreas): 4.16
Radiant efficiency Targeting:M13Ke ([5]; healthy mouse, spleen): 2.73
specificity for CP over healthy pancreas [5]: increased specificity for CP over healthy pancreas

HSGLNKQ (displayed on phage) [7-mer peptide, candidate phage clone selected by motif clustering analysis]
Radiant efficiency Targeting:M13Ke ([5]; CP mouse, liver): 0.63
Radiant efficiency Targeting:M13Ke ([5]; CP mouse, pancreas): 6.07
Radiant efficiency Targeting:M13Ke ([5]; CP mouse, spleen): 3.42
CP-to-Healthy Ratio ([5]; Liver): 1.254
CP-to-Healthy Ratio (fold change of specificity ratio) [5]: 0.611
CP-to-Healthy Ratio ([5]; Spleen): 1.157
Radiant efficiency Targeting:M13Ke ([5]; healthy mouse, liver): 0.50
Radiant efficiency Targeting:M13Ke ([5]; healthy mouse, pancreas): 9.93
Radiant efficiency Targeting:M13Ke ([5]; healthy mouse, spleen): 2.96

KTYVPTT (displayed on phage)
Cell type the phage clone shows specificity to [6]: aPSC
Marker the phage clone shows specificity to [6]: α-SMA^+
Colocalized Markers (p < 0.05) [6]: α-SMA
Corresponding Cellular Components [6]: aPSC
Mean Manders' Correlation Coefficient (MCC), fraction of phage overlapping cell marker (CK7 (epithelium)): 0.06
Mean Manders' Correlation Coefficient (MCC), fraction of phage overlapping cell marker [1]: 0.31
Mean Manders' Correlation Coefficient (MCC), fraction of phage overlapping cell marker [2]: 0.26
Mean Manders' Correlation Coefficient (MCC), fraction of phage overlapping cell marker [3]: 0.521±0.067 and 0.52
Mean Manders' Correlation Coefficient (MCC), fraction of phage overlapping cell marker (CD31 (endothelium)): 0.20
Mean Manders' Correlation Coefficient (MCC), fraction of phage overlapping cell marker [4]: 0.23
Radiant efficiency Targeting:M13Ke ([5]; CP mouse, liver): 0.61
Radiant efficiency Targeting:M13Ke ([5]; CP mouse, pancreas): 11.90
Radiant efficiency Targeting:M13Ke ([5]; CP mouse, spleen): 3.05
CP-to-Healthy Ratio ([5]; Liver): 1.161
CP-to-Healthy Ratio (fold change of specificity ratio) [5]: 1.362
CP-to-Healthy Ratio ([5]; Spleen): 0.890
Radiant efficiency Targeting:M13Ke ([5]; healthy mouse, liver): 0.53
Radiant efficiency Targeting:M13Ke ([5]; healthy mouse, pancreas): 8.74
Radiant efficiency Targeting:M13Ke ([5]; healthy mouse, spleen): 3.43
specificity for CP over healthy pancreas [5]: increased specificity for CP over healthy pancreas

MDLSLKP (displayed on phage)
Cell type the phage clone shows specificity to [6]: ECM
Marker the phage clone shows specificity to [6]: Collagen
Colocalized Markers (p < 0.05) [6]: Collagen
Corresponding Cellular Components [6]: ECM
Mean Manders' Correlation Coefficient (MCC), fraction of phage overlapping cell marker (CK7 (epithelium)): 0.06
Mean Manders' Correlation Coefficient (MCC), fraction of phage overlapping cell marker [1]: 0.46
Mean Manders' Correlation Coefficient (MCC), fraction of phage overlapping cell marker [2]: 0.31
Mean Manders' Correlation Coefficient (MCC), fraction of phage overlapping cell marker [3]: 0.16
Mean Manders' Correlation Coefficient (MCC), fraction of phage overlapping cell marker (CD31 (endothelium)): 0.20
Mean Manders' Correlation Coefficient (MCC), fraction of phage overlapping cell marker [4]: 0.828±0.089 and 0.83
Radiant efficiency Targeting:M13Ke ([5]; CP mouse, liver): 0.72
Radiant efficiency Targeting:M13Ke ([5]; CP mouse, pancreas): 10.85
Radiant efficiency Targeting:M13Ke ([5]; CP mouse, spleen): 2.70
CP-to-Healthy Ratio ([5]; Liver): 1.370
CP-to-Healthy Ratio (fold change of specificity ratio) [5]: 1.875
CP-to-Healthy Ratio ([5]; Spleen): 1.156
Radiant efficiency Targeting:M13Ke ([5]; healthy mouse, liver): 0.52
Radiant efficiency Targeting:M13Ke ([5]; healthy mouse, pancreas): 5.79
Radiant efficiency Targeting:M13Ke ([5]; healthy mouse, spleen): 2.34
specificity for CP over healthy pancreas [5]: increased specificity for CP over healthy pancreas

SANITNL (displayed on phage) [7-mer peptide, candidate phage clone selected by replicability between libraries]
Radiant efficiency Targeting:M13Ke ([5]; CP mouse, liver): 0.74
Radiant efficiency Targeting:M13Ke ([5]; CP mouse, pancreas): 4.02
Radiant efficiency Targeting:M13Ke ([5]; CP mouse, spleen): 4.60
CP-to-Healthy Ratio ([5]; Liver): 1.287
CP-to-Healthy Ratio (fold change of specificity ratio) [5]: 0.943
CP-to-Healthy Ratio ([5]; Spleen): 1.518
Radiant efficiency Targeting:M13Ke ([5]; healthy mouse, liver): 0.58
Radiant efficiency Targeting:M13Ke ([5]; healthy mouse, pancreas): 4.27
Radiant efficiency Targeting:M13Ke ([5]; healthy mouse, spleen): 3.03

SLPLGPM (displayed on phage) [7-mer peptide, candidate phage clone from Groups 2 and 3]
Mean Manders' Correlation Coefficient (MCC), fraction of phage overlapping cell marker (CK7 (epithelium)): 0.06
Mean Manders' Correlation Coefficient (MCC), fraction of phage overlapping cell marker [1]: 0.49
Mean Manders' Correlation Coefficient (MCC), fraction of phage overlapping cell marker [2]: 0.35
Mean Manders' Correlation Coefficient (MCC), fraction of phage overlapping cell marker [3]: 0.15
Mean Manders' Correlation Coefficient (MCC), fraction of phage overlapping cell marker (CD31 (endothelium)): 0.25
Mean Manders' Correlation Coefficient (MCC), fraction of phage overlapping cell marker [4]: 0.23
Radiant efficiency Targeting:M13Ke ([5]; CP mouse, liver): 0.64
Radiant efficiency Targeting:M13Ke ([5]; CP mouse, pancreas): 6.42
Radiant efficiency Targeting:M13Ke ([5]; CP mouse, spleen): 3.49
CP-to-Healthy Ratio ([5]; Liver): 0.921
CP-to-Healthy Ratio (fold change of specificity ratio) [5]: 1.286
CP-to-Healthy Ratio ([5]; Spleen): 1.215
Radiant efficiency Targeting:M13Ke ([5]; healthy mouse, liver): 0.69
Radiant efficiency Targeting:M13Ke ([5]; healthy mouse, pancreas): 5.00
Radiant efficiency Targeting:M13Ke ([5]; healthy mouse, spleen): 2.87
specificity for CP over healthy pancreas [5]: increased specificity for CP over healthy pancreas
